One assay deals with HepG2 cells. Description: In vitro HDL internalization in human hepatocytes (HepG2) cells. The class given is cell-based. The following applies: compound 1 μM; 3H-labeled HDL 75 μg/ml, 10 min at 37° C. Here is the method:
FIG. 3: Single-dose effect of the selected molecules on HDL internalization by HepG2 cells. Cells were incubated for 10 min at 37° C. with 75 μg/ml ^3H cholesterol Cholesteryl Oleate [Cholesteryl-1,2-^3H(N)] HDL, Reference Compound (100 nM) and illustrative compounds of the invention (1 μM). Data are expressed as the percentage of internalized radioactivity with respect to the control value (set as […]). *p<0.005, **p<0.0001.
The effect of illustrative compounds of the invention on HDL internalization was measured by an in vitro assay on HepG2 cells (FIG. 3). ^3H cholesterol Cholesteryl Oleate [Cholesteryl-1,2-^3H(N)] labeled HDL] (available from PerkinElmer http://www.perkinelmer.com/Catalog/Product/ID/NET746L001MC) was loaded on HepG2 cells in presence of illustrative compounds of the invention (final concentration 1 μM). […] It was determined that Compounds XIa, IIc, IIa and Ih (R-isomer) have a strong impact on HDL uptake by HepG2 cells; Compounds IIb, VIIa and VIIIa have a modest impact on HDL uptake by HepG2 cells.
^3H cholesterol Cholesteryl Oleate [Cholesteryl-1,2-^3H(N)] (Perkin Elmer) solution (250 μL) was dried and resuspended in acetone (250 μL). The solution was mixed with Lipoprotein delipidated serum (20 mL at 40 mg/mL) and DTNB (0.4 μM final concentration). HDL (7 mg) was added and incubated overnight at 4° C. on gentle rotation. The HDL was purified on KBr gradient as previously described.
Hepatocytes were plated at 300,000 cells/well in 6×-well plates. Two days later, the cells were washed once with DMEM and incubated for 1 hour in DMEM at 37° C. 75 μg of radio-labeled HDL (6500 dpm/μg) were added to the medium and incubated for 10 minutes at 37° C. The cells were washed once with DMEM (2 mL) and incubated for 1.5 hours in DMEM at 4° C., whereupon dissociation occurred. Then the cells were washed once more with cold DMEM (2 mL) and the incorporated cholesterol ether was retrieved from HepG2 cells by the addition of hexane:isopropanol (3:2) solution (1 mL).

In a further assay the target is human P2Y13 receptor (Homo sapiens (Human), UniProt Q9BPV8). Description: Ca++ flux agonist assay on P2Y13 receptor transfected 1321N1 cells. The conditions noted are these: Table 4, measured from data of Figure 2; comma is decimal sign. The class given is cell-based. As for the experimental part: Compounds were assayed for their agonist activity on P2Y13 GPCR transfected cells using a Ca++ flux assay (associated to fluorescent dye detection) with the Reference Compound as positive reference. Two cell lines, 1321N1-P2Y13 stably expressing human P2Y13 receptor, and 1321N1 parental cell line as control, were used in this assay. 1321N1 Parental and 1321N1 P2Y13 were seeded into T25 flasks at 3 million cells per flask, respectively. Cells were incubated at 37 degrees Celsius in 5% CO2 overnight. The day after, cells were transfected with Gqi5 protein using Fugene transfection reagent (Roche's Fugene Reagent).
human P2Y13 receptor, sequence (Q9BPV8 whole entry): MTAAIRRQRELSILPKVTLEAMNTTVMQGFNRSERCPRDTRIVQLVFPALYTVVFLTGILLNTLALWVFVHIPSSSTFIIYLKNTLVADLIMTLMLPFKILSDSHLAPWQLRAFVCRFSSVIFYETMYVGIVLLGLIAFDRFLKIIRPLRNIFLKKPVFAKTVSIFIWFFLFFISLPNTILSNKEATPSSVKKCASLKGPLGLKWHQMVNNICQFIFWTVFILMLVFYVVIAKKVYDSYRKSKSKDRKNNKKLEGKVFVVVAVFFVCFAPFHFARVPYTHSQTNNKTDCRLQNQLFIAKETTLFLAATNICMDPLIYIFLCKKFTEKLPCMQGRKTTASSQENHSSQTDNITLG
After 24 hours of transfection, cells were collected from flasks and seeded in 384-well plates at 8000 cells per well. The assays were carried out 48 hours after Gqi5 transfection.
Methods: The Ca++ flux assay was conducted according to the manufacturer's protocol (Molecular Devices FLIPR Calcium 4 Assay kit (R8142). Briefly, cell culture media were aspirated from the wells and replaced with 25 μL of Hank's buffer or PBS buffer. 25 μL of Ca++ dye was added into each assay well. The plate was incubated for 1 hour at 37° C. in 5% CO2. After the incubation, the plate was transferred to FlexStation III (FlexStation III (Molecular Devices)). The compounds were automatically injected into each well.

A further assay relates to C57Bl6 mice. Nature of the assay: Dose response on bile physiology after single oral gavage in mice. The class given is in vivo. As for the experimental part: FIG. 16A-J: Increase of bile secretion following activation of P2Y13r pathway in mice. C57Bl/6J mice (n=10) were fasted for 2 h and then intravenously injected with Cangrelor® or Compound IIa (10 nmoles/kg). Four hours later the gallbladders were removed and analyzed for: Bile acids content (FIG. 16A); Bile cholesterol content (FIG. 16B). C57Bl/6J mice (n=10) were fasted for 2 h followed by single oral dose of P2Y13r agonist Compound IIa at 3, 30 or 300 μg/kg. Six hours later bile acids contents (FIG. 16C); bile cholesterol content (FIG. 16D), and bile acid content of liver (FIG. 16E) were evaluated using HPLC and enzymatic kits for gallbladers. Plasma samples were collected at time 0 and after 6 h of treatment, then analyzed for: total cholesterol (▴), unesterified cholesterol (●), esterified cholesterol (▪) and HDL cholesterol (▾) determined using either enzymatic kits or Lipoprint® for HDL cholesterol (FIG. 16F). C57Bl/6J mice (n=5) were intravenously injected with [^3H]-cholesterol-labelled mouse HDL (FIG. 16G), [^3H]-cholesteryl oleate-labelled mouse HDL (FIG. 16H) or [^3H]-cholesterol-labelled mouse LDL (FIG. 16I), and with Cangrelor® or Compound IIa (10 nmoles/kg). Radioactivity present in the liver was determined 2 hours later for the HDL or 5 hours later for the LDL. Cholesterol content of feces from treated animals (100 μg/kg) was determined by Charge aerosol detection (FIG. 16J). *p<0.05, **p<0.01.
The dose response after oral gavage was determined for illustrative compounds of the invention. The chosen doses were 0.003, 0.03 and 0.3 mg/kg. The selected compounds of the invention were administrated by oral gavage and 6 hours later the mice are sacrificed and the bile content was analyzed (FIGS. 6-11).
Bile acids were diluted in PBS (1:5000) and the concentration was measured according to the manufacturer protocol with slight modifications. Concentrations of bile acids in the standard curve were varied from […] and the enzymatic reaction was performed for 20 minutes. 4 μl of 1:5000 bile dilution was used for concentration determination.
Bile phospholipids were measured according to the manufacturer protocol. Briefly, the standards were varied from 0 to 20 μg/ml and 4 μl of bile was measured in the assay. The reaction was performed for 5 minutes at 37° C.
Bile phospholipids were measured according to the manufacturer protocol. Briefly, the standards were varied from 0 to 60 μg/ml and 10 μl of bile (dilution 1:10) was measured in the assay. The reaction was performed for 5 minutes at 37° C.

The structures appear in SMILES notation.

Regarding `CN(C)c1ncc(CN2CCC(c3cc(O)nc(N4CCOCC4)n3)CC2)cn1` [Compound IIa, 6-[1-(2-Dimethylaminopyrimidin-5-ylmethyl)-piperidin-4-yl]-2-morpholin-4-yl-pyrimidin-4-ol], the “impact on HDL uptake by HepG2 cells” value with HepG2 cells is reported as “strong impact”. For the same compound, the EC50 (usually the concentration at which the effect is half-maximal) on human P2Y13 receptor turned out to be 40.3 µM. For the same compound, in the assay on C57Bl6 mice (after 4 h of treatment, exception: unesterified cholesterol), the “plasma cholesterol and HDL” value is “not significantly affected”. In the assay with C57Bl6 mice (oral gavage 0.003, 0.03 and 0.3 mg/kg, bile analyzed 6 hours later), the “dose at which an effect on bile acids, bile cholesterol and bile phospholipids was shown” value was 3 µg/kg. Also, in the assay on C57Bl6 mice (oral gavage, doses as low as 30 μg/kg), the “bile acid and cholesterol secretion in the bile” value was “stimulation”. The “liver bile acid content” value in the assay with C57Bl6 mice (oral, 30 μg/kg) was “increase”.

(Values after patent US10220040B2, “Compounds, compositions and methods useful for cholesterol mobilization” (Cerenis Therapeutics Holding SA, priority 2010, dated 2019).)
